What was measured:
Type in all cases: cell-based
[1] = test system: K562 clone-9 cells; assay: EPP cellular model: PPIX level by flow cytometry after 96 h compound incubation; conditions: for EC50: Homo sapiens, K562 clone-9 cells, 96 hours, flow cytometry, read-out: EPP cellular model (EC50 nM), inhibition of PPIX accumulation
Protocol: Knockout guide sequences were designed to target Exon3 of the Ferrochelatase gene.
K562 cells were cultured in Iscove's Modified Dulbecco's Medium (IMDM) supplemented with 10% fetal bovine serum (FBS), 1% penicillin/streptomycin (PS). CRISPR Cas9 RNP complex with guide RNA was electroporated in K562 cells. Genomic DNA from the pooled cells was isolated, amplified by PCR and sequenced by Sanger sequencing to determine knockout efficiency. Single-cell clones were isolated by fluorescent-assisted cell sorting (FACS). TA cloning and Sanger sequencing were used to confirm single-cell clones and genotypes. Five clones were selected (Clone IDs are: Clone 1-7; Clone 1-9; Clone 1-10, Clone 1-32; Clone 1-51; and K562 WT) for further characterization by western blot (FIG. 1) to determine FECH protein expression levels (Antibody: FECH Antibody Rabbit Polyclonal, Proteintech, 14466-1-AP) and flow cytometry to determine the PPIX levels (FIG. 2). LC/MS/MS confirmed the accumulation of PPIX in clone 1-9 compared to WT K562 cells (FIG. 3).
(§1) 900 μL of K562 clone-9 cells at 2×10^5 cells/mL in IMDM media with 10% FBS and 1% PS were plated into a 24-well plate. After 24-hour incubation, 100 μL of compound in DMSO/media was added in different concentration. The final concentration of DMSO was 0.1%. The compound was incubated for 96 hours at 37° C. Cell viability and cell count were measured by Vi-CELL XR Complete System. Finally, the effect of the compound on PPIX level was determined by flow cytometry.

[2] = test system: K562 clone-9 cells; assay: Cell viability and cell count by Vi-CELL XR Complete System in EPP cellular model; conditions: 96 hours, Vi-CELL XR
Protocol: as §1

[3] = test system: clone 1-9 cells (EPP K562 cellular model); assay: LC/MS/MS of 5-ALA, PPIX and heme levels in the EPP K562 cellular model
[4] = test system: human cord blood-CD34+ cells; assay: Human cord blood CD34+ cells transduced with FECH shRNA lentivirus, erythroid differentiation, flow cytometry; conditions: 100 nM, 9 days differentiation
Protocol: To investigate the effects of GlyT1 inhibitors in human hematopoietic stem cells with an EPP phenotype, lentiviral vectors expressing shRNA of FECH were constructed (Table 4) and transduced at 25 MOI into human cord blood-CD34+ cells purchased from Stemexpress.
Transduced CD34+ cells were differentiated in the presence of Bitopertin (100 nM) or DMSO control into erythroid cells for 9 days in StemSpan SFEM II media supplemented with StemSpan Erythroid Expansion Supplement. The erythroid cell antigen profile was analyzed using cytofluorimetric strategy with the following surface markers: CD71 (PE Mouse Anti-Human CD71, BD Biosciences), glycophoryin A (APC Mouse Anti-Human CD235a, BD Biosciences).

EC50 [1] [nM] | SMILES | also measured
306 | O=C(N[C@@H](c1ccccc1)[C@@H]1CCCCN1)c1cccc(C(F)(F)F)c1Cl [SSR-504734] | 
> 10000 | COc1cc(C(=O)NCC2(N(C)C)CCCC2)cc(OC)c1OCc1ccccc1 [ORG-25543] | inhibition of PPIX accumulation (in words) ([1]; EPP cellular model, highest tested concentration 10 μM for ORG-25543): did not show any inhibition
46 | CN1C[C@@H]2[C@H](C1)[C@H]2CN(Cc1ccc(F)c(Cl)c1)C(=O)c1cn(C)cn1 [PF-03463275] | 
14 | COc1ccc2c(c1)CC[C@H](CN(C)CC(=O)O)[C@@H]2c1ccccc1 [ORG-25935] | 

Second part, the compound before the results:

SMILES | EC50 [1] [nM] | also measured
CN(CC[C@@H](Oc1ccc(-c2ccccc2)cc1)c1ccc(F)cc1)CC(=O)O [ALX-5407] | 0.34 | 
C[C@H](Oc1ccc(S(C)(=O)=O)cc1C(=O)N1CCN(c2ncc(C(F)(F)F)cc2F)CC1)C(F)(F)F [Bitopertin, bitopertin] | 7 | effect on cell viability [2]: no negative effects on cell viability; 5-aminolevulinic acid (5-ALA) level [3]: decreased; Heme formation [3]: minimal effect; PPIX level [3]: decreased; effect on erythroid cell surface markers (CD71, glycophoryin A) [4]: no negative effects; reduction of PPIX accumulation ([4]; FECH shRNA transduced CD34+ cells, flow cytometry): 60%
CN(CCOc1ccc(-c2ccc3c(c2)OCO3)cc1C(C)(C)C)CC(=O)O [LY-2365109] | 4.1 | 
CN(CC[C@@H](Oc1ccc(C(F)(F)F)cc1)c1ccccc1)CC(=O)O [ORG-24598] | 5.6 | 

From patent publication US11813257B2, “Methods of treating erythropoietic protoporphyria, X-linked protoporphyria, or congenital erythropoietic porphyria with glycine transport inhibitors” (Disc Medicine, Inc., priority 2020, dated 2023)
